Experiments:
Conditions in all cases: 50 mM KHCO3, 50 mM HEPES, 50 mM Na2SO4, 50 mM MgSO4, pH 6, 1°C
Can2 = Can2 (Cupriavidus necator, UniProt Q0JYX2)
Cag = biological target: T1, Cag (Cupriavidus necator, UniProt Q0KCD8)
T1 construct: gene H16_A1192

Caa = Caa (Cupriavidus necator, UniProt Q0JYI9)
Can = Can (Cupriavidus necator, UniProt Q0KFA0)
CaaB = biological target: T2, CaaB (Cupriavidus necator, UniProt Q0JYI9)
T2 construct: gene caa
T2 sequence (Q0JYI9 24-249): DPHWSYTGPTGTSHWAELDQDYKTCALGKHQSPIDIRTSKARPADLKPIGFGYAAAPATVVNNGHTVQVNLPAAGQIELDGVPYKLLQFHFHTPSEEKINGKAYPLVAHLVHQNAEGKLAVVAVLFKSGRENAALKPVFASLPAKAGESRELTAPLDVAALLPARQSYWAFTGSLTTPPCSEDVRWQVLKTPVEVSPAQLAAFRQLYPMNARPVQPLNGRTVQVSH

Chain of Caa (Q0JYI9 1-249): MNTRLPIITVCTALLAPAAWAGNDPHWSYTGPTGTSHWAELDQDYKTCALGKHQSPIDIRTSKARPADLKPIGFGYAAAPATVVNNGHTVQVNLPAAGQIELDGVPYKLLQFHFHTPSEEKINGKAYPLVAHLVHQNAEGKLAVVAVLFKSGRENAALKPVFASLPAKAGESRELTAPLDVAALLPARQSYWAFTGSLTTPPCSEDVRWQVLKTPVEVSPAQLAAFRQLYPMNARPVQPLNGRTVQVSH
Chain of Can (Q0KFA0 1-223): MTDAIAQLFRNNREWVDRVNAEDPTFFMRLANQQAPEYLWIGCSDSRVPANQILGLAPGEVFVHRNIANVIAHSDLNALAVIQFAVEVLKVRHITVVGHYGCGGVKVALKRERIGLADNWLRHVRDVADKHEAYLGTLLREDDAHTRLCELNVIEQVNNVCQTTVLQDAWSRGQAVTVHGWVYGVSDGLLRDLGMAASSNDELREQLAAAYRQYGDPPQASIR
T1 sequence (Q0KCD8 1-174): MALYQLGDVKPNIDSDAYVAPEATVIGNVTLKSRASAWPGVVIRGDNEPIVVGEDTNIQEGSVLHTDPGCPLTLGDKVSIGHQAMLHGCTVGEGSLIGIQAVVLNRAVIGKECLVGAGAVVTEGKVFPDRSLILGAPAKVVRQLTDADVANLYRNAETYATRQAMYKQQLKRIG
Chain of Can2 (Q0JYX2 1-235): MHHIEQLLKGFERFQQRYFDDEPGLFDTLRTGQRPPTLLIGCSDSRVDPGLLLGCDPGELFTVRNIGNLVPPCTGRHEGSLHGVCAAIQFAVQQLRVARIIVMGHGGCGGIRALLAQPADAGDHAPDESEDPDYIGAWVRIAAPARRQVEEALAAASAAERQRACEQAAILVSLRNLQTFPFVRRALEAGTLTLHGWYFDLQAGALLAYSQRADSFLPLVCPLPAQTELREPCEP

With `O=C(O)O` [bicarbonate] the “stopped-flow pH-indicator (phenol red, A557nm) assay” value (“stopped-flow pH-indicator” below) (Can2) was “the specific activities of both Can and Can2 were similar with bicarbonate as a substrate”, the “stopped-flow pH-indicator” value (Cag) was “Cag presented the highest activity using bicarbonate as a carbon source” and the “stopped-flow pH-indicator” value (Caa) was “All CAs were active towards CO2 and bicarbonate”. The “stopped-flow pH-indicator” value (Can) was “the specific activities of both Can and Can2 were similar with bicarbonate as a substrate” and the “stopped-flow pH-indicator” value (CaaB) was “(CaaB) exhibited similar activity values when compared to the purified, Strep-tagged Caa enzyme”.

From PMC3904209 (AMB Express, 2014)
